# In publication PMC9116245, “New 1,2,3-triazole linked ciprofloxacin-chalcones induce DNA damage by inhibiting human topoisomerase I& II and tubulin polymerization” (Journal of Enzyme Inhibition and Medicinal Chemistry, 2022):
# Columns and labels:
# Test in all cases: NCI one-dose screen
# Format in all cases: cell-based
# MDA-MB-468 = details: Homo sapiens; MDA-MB-468, 10 µM; read-out: Growth Percent
# In short: (§1)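 NCI-60 protocol, one dose: 10 µM compound, 59 human lines (breast, ovarian, melanoma, leukaemia, renal, CNS, lung, prostate, colon). Output expressed as growth percent.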
# DU-145 = details: Homo sapiens; DU-145, 10 µM; read-out: Growth Percent
# In short: as §1
# UACC-257 = details: Homo sapiens; UACC-257, 10 µM; read-out: Growth Percent
# In short: as §1
# EKVX = details: Homo sapiens, read-out: Growth Percent
# In short: as §1
# HL-60(TB) = details: Homo sapiens, read-out: Growth Percent
# RXF 393 = details: Homo sapiens; RXF 393, 10 µM; read-out: Growth Percent
# In short: as §1
# OVCAR-5 = details: Homo sapiens; OVCAR-5, 10 µM; read-out: Growth Percent
# In short: as §1
# UACC-62 = details: Homo sapiens; UACC-62, 10 µM; read-out: Growth Percent
# In short: as §1
# HCC-2998 = details: Homo sapiens; HCC-2998, 10 µM; read-out: Growth Percent
# In short: as §1
# U251 = details: Homo sapiens, U-251; U251, 10 µM; read-out: Growth Percent
# In short: as §1
# LOX IMVI = details: Homo sapiens, read-out: Growth Percent
# In short: as §1
# 786-0 = details: Homo sapiens; 786-0, 10 µM; read-out: Growth Percent
# In short: as §1
# OVCAR-4 = details: Homo sapiens; OVCAR-4, 10 µM; read-out: Growth Percent
# In short: as §1
# SF-268 = details: Homo sapiens; SF-268, 10 µM; read-out: Growth Percent
# In short: as §1
# SN12C = details: Homo sapiens, read-out: Growth Percent
# In short: as §1
# SW-620 = details: Homo sapiens; SW-620, 10 µM; read-out: Growth Percent
# In short: as §1
# K-562 = details: Homo sapiens, K562; K-562, 10 µM; read-out: Growth Percent
# In short: as §1
# OVCAR-8 = details: Homo sapiens; OVCAR-8, 10 µM; read-out: Growth Percent
# In short: as §1
# PC-3 = details: Homo sapiens; PC-3, 10 µM; read-out: Growth Percent
# In short: as §1
# COLO 205 = details: Homo sapiens; COLO 205, 10 µM; read-out: Growth Percent
# In short: as §1
# NCI-H23 = details: Homo sapiens; NCI-H23, 10 µM; read-out: Growth Percent
# In short: as §1
# HS 578T = details: Homo sapiens, read-out: Growth Percent
# In short: as §1
# A498 = details: Homo sapiens; A498, 10 µM; read-out: Growth Percent
# In short: as §1
# SNB-19 = details: Homo sapiens; SNB-19, 10 µM; read-out: Growth Percent
# In short: as §1
# HT29 = details: Homo sapiens, HT-29; HT29, 10 µM; read-out: Growth Percent
# In short: as §1
# NCI-H522 = details: Homo sapiens; NCI-H522, 10 µM; read-out: Growth Percent
# In short: as §1
# MDA-MB-435 = details: Homo sapiens; MDA-MB-435, 10 µM; read-out: Growth Percent
# In short: as §1
Structure (SMILES),activity at 10 µM (MDA-MB-468),activity at 10 µM (DU-145),activity at 10 µM (UACC-257),activity at 10 µM (EKVX),activity at 10 µM (HL-60(TB)),activity at 10 µM (RXF 393),activity at 10 µM (OVCAR-5),activity at 10 µM (UACC-62),activity at 10 µM (HCC-2998),activity at 10 µM (U251),activity at 10 µM (LOX IMVI),activity at 10 µM (786-0),activity at 10 µM (OVCAR-4),activity at 10 µM (SF-268),activity at 10 µM (SN12C),activity at 10 µM (SW-620),activity at 10 µM (K-562),activity at 10 µM (OVCAR-8),activity at 10 µM (PC-3),activity at 10 µM (COLO 205),further results
"Cc1ccc(/C=C/C(=O)c2ccc(-n3cc(CN4CCN(c5cc6c(cc5F)c(=O)c(C(=O)O)cn6C5CC5)CC4)nn3)cc2)cc1 [Compound 4f, (E)-1-cyclopropyl-6-fluoro-4-oxo-7-(4-((1-(4-(3-(p-tolyl)acryloyl)phenyl)-1H-1,2,3-triazol-4-yl)methyl)piperazin-1-yl)-1,4-dihydroquinoline-3-carboxylic acid]",92.2%,78.9%,95.8%,90.7%,94.3%,88.4%,99.5%,83%,98.5%,71.2%,50.4%,76.7%,91.4%,72.6%,44.9%,95.5%,51.5%,79%,82%,107%,activity at 10 µM (NCI-H23): 85.4%; activity at 10 µM (HS 578T): 83.6%; activity at 10 µM (A498): 57.4%; activity at 10 µM (SNB-19): 86.9%; activity at 10 µM (HT29): 91.7%; activity at 10 µM (NCI-H522): 78.3%; activity at 10 µM (MDA-MB-435): 86.6%
"O=C(/C=C/c1ccc(Cl)cc1)c1ccc(-n2cc(CN3CCN(c4cc5c(cc4F)c(=O)c(C(=O)O)cn5C4CC4)CC3)nn2)cc1 [Compound 4c, (E)-7-(4-((1-(4-(3-(4-chlorophenyl)acryloyl)phenyl)-1H-1,2,3-triazol-4-yl)methyl)piperazin-1-yl)-1-cyclopropyl-6-fluoro-4-oxo-1,4-dihydroquinoline-3-carboxylic acid]",66%,76.3%,91%,94%,99.1%,58.3%,92.2%,73.8%,88.3%,42.1%,36.2%,54.2%,89.7%,70.4%,45.8%,83.7%,56%,62%,79.3%,108%,activity at 10 µM (NCI-H23): 79.7%; activity at 10 µM (HS 578T): 67.4%; activity at 10 µM (A498): 52.2%; activity at 10 µM (SNB-19): 72%; activity at 10 µM (HT29): 79.2%; activity at 10 µM (NCI-H522): 80.1%; activity at 10 µM (MDA-MB-435): 79.5%
"COc1ccc(/C=C/C(=O)c2ccc(-n3cc(CN4CCN(c5cc6c(cc5F)c(=O)c(C(=O)O)cn6C5CC5)CC4)nn3)cc2)cc1 [Compound 4g, (E)-1-Cyclopropyl-6-fluoro-7-(4-((1-(4-(3-(4-methoxyphenyl)acryloyl)phenyl)-1H-1,2,3-triazol-4-yl)methyl)piperazin-1-yl)-4-oxo-1,4-dihydroquinoline-3-carboxylic acid]",74.4%,90.8%,91.7%,96.6%,99%,75%,100%,74.6%,90.7%,68.6%,56.9%,78.1%,94.4%,77.3%,58.2%,81.7%,67.5%,83.6%,89%,97.1%,activity at 10 µM (NCI-H23): 85.4%; activity at 10 µM (HS 578T): 65.3%; activity at 10 µM (A498): 60.5%; activity at 10 µM (SNB-19): 84.1%; activity at 10 µM (HT29): 78.2%; activity at 10 µM (NCI-H522): 79.1%; activity at 10 µM (MDA-MB-435): 82.2%
"CN(C)c1ccc(/C=C/C(=O)c2ccc(-n3cc(CN4CCN(c5cc6c(cc5F)c(=O)c(C(=O)O)cn6C5CC5)CC4)nn3)cc2)cc1 [Compound 4h, (E)-1-cyclopropyl-7–(4-((1–(4-(3-(4-(dimethylamino)phenyl)acryloyl)phenyl)-1H-1,2,3-triazol-4-yl)methyl)piperazin-1-yl)-6-fluoro-4-oxo-1,4-dihydroquinoline-3-carboxylic acid]",77.1%,96.3%,101%,96%,98.8%,70.9%,109%,77.6%,92.4%,73%,56.9%,65%,94.8%,71.5%,67.7%,98.5%,86%,62.5%,89.6%,101%,activity at 10 µM (NCI-H23): 81.5%; activity at 10 µM (HS 578T): 80.5%; activity at 10 µM (A498): 64.5%; activity at 10 µM (SNB-19): 86.4%; activity at 10 µM (HT29): 98.9%; activity at 10 µM (NCI-H522): 88.6%; activity at 10 µM (MDA-MB-435): 77.4%
"O=C(/C=C/c1ccc(Br)cc1)c1ccc(-n2cc(CN3CCN(c4cc5c(cc4F)c(=O)c(C(=O)O)cn5C4CC4)CC3)nn2)cc1 [Compound 4d, (E)-7-(4-((1-(4-(3-(4-bromophenyl)acryloyl)phenyl)-1H-1,2,3-triazol-4-yl)methyl)piperazin-1-yl)-1-cyclopropyl-6-fluoro-4-oxo-1,4-dihydroquinoline-3-carboxylic acid]",72.5%,92.3%,90.1%,80.8%,98.8%,55.7%,92.7%,72.8%,83.3%,68.4%,55.7%,72.2%,96.7%,77.2%,58.8%,85.9%,60.7%,80.7%,84.7%,112%,activity at 10 µM (NCI-H23): 77.6%; activity at 10 µM (HS 578T): 71.2%; activity at 10 µM (A498): 34.9%; activity at 10 µM (SNB-19): 76.7%; activity at 10 µM (HT29): 99.2%; activity at 10 µM (NCI-H522): 88%; activity at 10 µM (MDA-MB-435): 81.9%
